Assay results reported in patent EP4371976B1, “IONIZABLE LIPIDS AND LIPID NANOPARTICLES CONTAINING THEREOF” (Certest Biotec, S.L., priority 2022, dated 2024).

What was measured:
[1] = test system: Female BALB/c mice; assay: Firefly luciferase expression (total flux, IVIS imaging) in mice after injection of mRNA-loaded LNPs; assay type: in vivo
Description: For in vivo administration, mRNA comprising in the 5' to 3' direction a sequence encoding for luciferase of SEQ ID NO:1, was encapsulated into LNPs following the procedure described in Hassett, K. J. et al., "Optimization of Lipid Nanoparticles for Intramuscular Administration of mRNA Vaccines", 2019, Mol. Ther. Nucleic Acid, vol. 15, pp. 1-11. Briefly, the purified mRNAs were first diluted in sodium citrate buffer at pH=4 at a final concentration of 266 µg/ml. Separately, a mixture of the ionizable lipid of the invention:DSPC (Merk 850365P):cholesterol (Sigma C3045):DMG-PEG2000 (Cayman 33945-1) were dissolved into ethanol at the respective molar percentages of 50:10:38.5:1.5, and with a lipid-nitrogen-to-phosphate ratio (N:P) ratio of 5,5:1.
The mRNA aqueous solution was then carefully added to the ethanol solution, and the resulted solution was homogenized by pipetting up and down for 4-5 times. The resulting LNPs were immediately diluted 1:1 with Tris buffer and dialyzed overnight against Tris buffer containing 15% sucrose. The resulting LNP solution was then collected, and the encapsulated mRNA was assessed by Quant-IT® Ribogreen (Invitrogen R11490) following the manufacturer's instructions.
Female BALB/c mice (Charles River Laboratories), 8-10-week-old, weighting 18-23 g, were acclimatized to new conditions upon arrival to experimental facilities for 3-7 days. Housing conditions were room temperature 20-24 °C, humidity 50-70 %, and light intensity 60 lux with a light-dark cycle of 12 hours.
For Firefly Luciferase activity measurement in mice, LNPs produced as indicated above (ionizable lipid:helper lipid: sterol:PEG-modified lipid → 50:10:38.5:1.5) and containing 5 µg of the indicated mRNA in 50 µl final volume, were injected intramuscularly.
From 4 to 72 hours after RNA-LPN inoculation mice were anaesthetized by inhalation with 4% of isoflurane using a vaporizer. The maintenance of the anaesthesia was performed at 1.5% of isoflurane. Then, D-luciferin (Quimigen, 12507) was injected intraperitoneally at 150 mg/kg, normally ~200 µL of the stock at 15 mg/mL in PBS for a 20 g mouse. Luciferase images were acquired 10 minutes after luciferin inoculation using the IVIS Lumina XRMS Imaging System following manufacturer's instructions.

[2] = RNA encapsulation efficiency of LNPs by Quant-IT Ribogreen; assay type: physicochemical; details: for Encaps. efficiency (%): LNPs with luciferase mRNA, ionizable lipid:non-cationic lipid:sterol:PEG-modified lipid 50:10:38.5:1.5, percentage of RNA entrapped in the LNP; for Encaps. efficiency: Table 8, LNP 50:10:38.5:1.5, luciferase mRNA
Procedure, shortened: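 LNPs formed by mixing aqueous mRNA into ethanol lipid solution, diluted 1:1 in Tris, dialysed overnight against Tris with 15% sucrose. Encapsulated mRNA measured by Ribogreen fluorescence per kit protocol; LNPs adjusted to 100 µg/ml final mRNA.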

[3] = Size distribution, polydispersity and Z-potential of LNPs by dynamic light scattering (Malvern Zetasizer); assay type: physicochemical; details: LNPs, standard formulation 50:10:38.5:1.5; DLS
Description: The LNP solution was then adjusted to a final concentration of mRNA of 100 µg/ml. Size distribution, polydispersity and Z-potential were measured by dynamic light scattering (DLS) using Malvern Zetasizer Advance Lab Blue Label. RNA encapsulation was assessed by Quant-IT® Ribogreen following the manufacturer's instructions.

[4] = Apparent pKa of LNPs comprising the ionizable lipid (Table 6); details: standard formulation 50:10:38.5:1.5
[5] = Table 8, mice, intramuscular, 5 µg luciferase mRNA in 50 µl, LNP 50:10:38.5:1.5
[6] = Table 9, comparative disulfide compounds, tested in vivo

Structure (SMILES) | Total Flux [1, 5] [p·s^-1] | Encaps. efficiency (%) [2] [%] | Encaps. efficiency [2] [%] | P.D.I. [3] | Particle size/ Ø (nm) [3] [nm] | Z Potential (± D.E.) [mV] [3] [mV] | protein expression in mice (transfection results) ([1]; Figure 1 legend, LNPs containing RNA) | transfection (luminescence) in vivo ([1]; Figure 2, intramuscular injection, LNP 50:10:38.5:1.5 encapsulating luciferase mRNA) | Total Flux [1, 6] [p·s^-1] | Apparent pKa [4] | Total Flux ([1]; Table 7A-C, mice, intramuscular, 5 µg luciferase mRNA in 50 µl, LNP ionizable lipid:helper lipid:sterol:PEG-modified lipid 50:10:38.5:1.5)
CCCCCCCCCCCCCOC(=O)CCSCCC(C(=O)NC1CCN(C)CC1)C(=O)OC(CCCCCCCC)CCCCCCCC (stereo not shown) [VC-LC-0441] | 2.2E+07 | 78.30 | 78.3 | 0.12 | 186.5 | -4.04 |  |  |  |  | 
CCCCCCCC#CCOC(=O)CCSCCC(C(=O)NC1CCN(C)CC1)C(=O)OC(CCCCCCCC)CCCCCCCC (stereo not shown) [VC-LC-0442] | 2.95E+07 | 87.80 | 87.8 | 0.12 | 171.8 | -4.19 |  |  |  |  | 
CCCCCCCCCCC(CCCCCCCC)C(=O)NC(CCSCCC(=O)OCC(CCCCCC)CCCCCCCC)C(=O)NC1CCN(C)CC1 (stereo not shown) [VC-LC-0557] | 4.3E+07 | 77.19 | 77.2 | 0.11 | 142.5 | -6.12 |  |  |  |  | 
CCCCCCCCCCCCCOC(=O)CCSCCC(NC(=O)C(CCCCCC)CCCCCCCC)C(=O)NCC1CCN(C)CC1 (stereo not shown) [VC-LC-0490] | 1.7E+07 | 97.16 | 97.2 | 0.18 | 136.1 | 0.83 |  |  |  |  | 
CCCCCCCCCCCCCCCCCC(=O)NC(CCSCCC(=O)OCC(CCCCCCCCCC)CCCCCCCCCCCC)C(=O)NCCCN1CCOCC1 (stereo not shown) [VC-LC-0389] |  | 76.40 |  | 0.26 | 218 | -9.68 | good transfection results |  |  |  | 
CCCCCCCCCCCCCOC(=O)CCSCCC(C(=O)NCCCn1ccnc1)C(=O)OC(CCCCCCCC)CCCCCCCC (stereo not shown) [VC-LC-0362] | 3.31E+07 | 73.55 | 73.5 | 0.14 | 121.1 | -13.94 |  |  |  |  | 
CCCCCCCCC(CCCCCC)C(=O)NC(CCSCCC(=O)OCCCCCCCC(C)C)C(=O)NCCCN(C)C (stereo not shown) [VC-LC-0101] | 1.05E+07 | 96.01 | 96.0 |  |  | 0.00 |  |  |  |  | 
CCCCCCCCC(CCCCCC)C(=O)NC(CCSSCCC(NC(=O)C(CCCCCC)CCCCCCCC)C(=O)NCCN1CCN(C)CC1)C(=O)NCCN1CCN(C)CC1 (stereo not shown) [VC-LC-0236] |  |  |  |  |  |  |  | no transfection | 5.20E+05 |  | 
CCCCCCCCC(CCCCCC)C(=O)NC(CCSSCCC(NC(=O)C(CCCCCC)CCCCCCCC)C(=O)NCCCN(C)C)C(=O)NCCCN(C)C (stereo not shown) [VC-LC-0230] |  |  |  |  |  |  |  |  | 4.47E+05 |  | 
CCCCCCCCCCC(CCCCCCCC)C(=O)NC(CCSCCC(=O)OCCCCCC)C(=O)NCC1CCN(C)CC1 (stereo not shown) [VC-LC-0518] |  | 97.70 |  | 0.17 | 149.1 | 3.90 |  |  |  | 6.67 | 
CCCCCCCCCCC(CCCCCCCC)C(=O)NC(CCSCCC(=O)OCC(CC)CCCC)C(=O)NCC1CCN(C)CC1 (stereo not shown) [VC-LC-0510] |  | 97.61 |  | 0.15 | 144.9 | -2.73 |  |  |  | 7.39 | 
CCCCCCCCC(CCCCCC)COC(=O)C(CSCCC(=O)OCCCCCC(C)C)CC(=O)NC1CCN(C)CC1 (stereo not shown) [VC-LC-0532] |  | 99.89 |  | 0.15 | 137.8 | 8.05 |  |  |  | 8.11 | 
CCCCCCCCC(CCCCCC)C(=O)NC(CCSCCC(=O)OCCCCCCCC(C)C)C(=O)NCC1CCN(C)CC1 (stereo not shown) [VC-LC-0492] |  | 98.15 |  | 0.16 | 150.9 | 0.83 |  |  |  | 7.47 | 
CCCCCCCC/C=C\CCCCCCCCOC(=O)CCSCCC(NC(=O)CCCCCCCCCCCCCCCCC)C(=O)NC1CCN(C)CC1 (stereo not shown) [VC-LC-0438] |  | 95.26 |  | 0.15 | 181.3 | 7.19 |  |  |  | 6.61 | 
CCCC#CCCOC(=O)CCSCCC(NC(=O)C(CCCCCC)CCCCCCCC)C(=O)NC1CCN(C)CC1 (stereo not shown) [VC-LC-0432] |  | 46.27 |  | 0.29 | 126.9 | -16.42 |  |  |  | 6.44 | 
CCCCCCCCCCCCCOC(=O)CCSCCC(NC(=O)C(CCCCCC)CCCCCCCC)C(=O)NCCN(CC)CC (stereo not shown) [VC-LC-0473] |  | 43.07 |  | 0.085 | 134.0 | -7.78 |  |  |  | 6.73 | 
CCCCCCCCCCCCCCOC(=O)CCSCCC(NC(=O)C(CCCCCC)CCCCCCCC)C(=O)NCCN(CC)CC (stereo not shown) [VC-LC-0478] |  | 65.16 |  | 0.17 | 156.2 | -7.01 |  |  |  | 6.82 | 
CCCCCCCCC(CCCCCC)COC(=O)CCSCCC(C(=O)NCCCN1CCOCC1)C(=O)OCC(CCCCCC)CCCCCCCC (stereo not shown) [VC-LC-0606] |  | 51.46 |  | 0.18 | 168.0 | -9.73 |  |  |  | 5.64 | 
CCCCCCCCCCCCC(CCCCCCCCCC)COC(=O)CCSCC(CC(=O)NC1CCN(C)CC1)C(=O)OCC(CCCCCC)CCCCCCCC (stereo not shown) [VC-LC-0537] |  | 69.42 |  | 0.14 | 165.1 | -8.81 |  |  |  | 5.23 | 
CCCCCCCCC(CCCCCC)C(=O)NC(CCSSCCC(NC(=O)C(CCCCCC)CCCCCCCC)C(=O)NCCCN(CCO)CCO)C(=O)NCCCN(CCO)CCO (stereo not shown) [VC-LC-0237] |  |  |  |  |  |  |  |  | 3.16E+05 |  | 
CCCCCCC#CCCOC(=O)CCSCC(CC(=O)NCCCN1CCOCC1)C(=O)OC(CCCCCCCC)CCCCCCCC (stereo not shown) |  |  |  |  |  |  |  |  |  |  | Total flux: 1,4E+08 p·s^-1
